{"source": "patent US20150158914A1", "about": "“PEPTIDES, CONSTRUCTS AND USES THEREFOR” (priority 2010, published 2015)", "key": {"[1]": {"target": "mutated B-Raf (Homo sapiens, UniProt P15056, V600E)", "sequence (P15056 whole entry V600E)": "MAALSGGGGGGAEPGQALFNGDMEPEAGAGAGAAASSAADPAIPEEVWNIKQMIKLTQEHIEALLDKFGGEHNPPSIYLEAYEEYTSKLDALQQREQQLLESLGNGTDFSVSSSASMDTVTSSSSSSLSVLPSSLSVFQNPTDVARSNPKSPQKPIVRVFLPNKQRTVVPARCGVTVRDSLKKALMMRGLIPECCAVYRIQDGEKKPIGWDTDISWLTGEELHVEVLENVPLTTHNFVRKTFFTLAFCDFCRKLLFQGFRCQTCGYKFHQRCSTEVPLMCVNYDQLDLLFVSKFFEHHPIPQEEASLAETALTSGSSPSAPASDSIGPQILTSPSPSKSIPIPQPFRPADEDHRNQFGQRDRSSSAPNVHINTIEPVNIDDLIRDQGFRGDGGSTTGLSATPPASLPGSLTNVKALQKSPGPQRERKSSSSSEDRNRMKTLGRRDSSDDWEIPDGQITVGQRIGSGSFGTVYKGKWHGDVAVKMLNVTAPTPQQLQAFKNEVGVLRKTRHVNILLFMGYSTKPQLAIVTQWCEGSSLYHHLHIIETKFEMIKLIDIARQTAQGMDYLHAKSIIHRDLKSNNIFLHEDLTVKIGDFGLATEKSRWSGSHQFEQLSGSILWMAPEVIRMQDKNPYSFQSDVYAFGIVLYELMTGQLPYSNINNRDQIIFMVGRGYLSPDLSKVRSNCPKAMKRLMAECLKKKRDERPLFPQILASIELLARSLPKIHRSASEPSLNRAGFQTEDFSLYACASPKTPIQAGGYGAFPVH", "settings": "in vivo; cited from earlier work"}, "[2]": {"tested_on": "WM-266-4 melanoma cells", "assay": "Apoptosis by anti-B-raf antibody delivered with the carrier peptide (Annexin-V fluos)", "assay_type": "cell-based", "settings": "1 μg/ml, 3 h", "quoted_text": "The carrier peptide-rabbit anti-B-raf antibody conjugate (1 μg/ml), the unconjugated carrier peptide and unconjugated anti-B-raf antibody (1 μg/ml) were added to WM-266-4 melanoma cells, and cell apoptosis was assessed after 3 h by addition of Annexin-V fluos, with visualization by fluorescence microscopy. Untreated cells were included as an additional control. Cell nuclei were stained with DAPI. The results were merged to illustrate the numbers of cells that underwent apoptosis compared with the total number of cells ie the proportion of cells that underwent apoptosis."}, "[3]": {"tested_on": "X-protein", "assay": "Western blot of X-protein in transfected HepG2 cells treated with X-protein-degradation domain fusion peptides", "assay_type": "cell-based, hepatitis B virus", "settings": "HepG2 transfected with pCDNA3.1-HBX or pCDNA3-HBX Myc; 10 μM peptide at 3 h, 24 h and 48 h post transfection", "quoted_text": "HepG2 cells were seeded into 6 well plates at 1×10^6 cells per well in MEM medium supplemented with 10% FCS, and cultured overnight at 37° and 5% CO2. No PSG antibiotic was added to the medium as it can interfere with transfection efficiency. The medium was then removed and replaced with MEM medium without 10% FCS. The amount of DNA used for transfection was 4 μg. Firstly, 4 μg of DNA was mixed with 250 μl of Opti-MEM medium, and then 4 μl of polymag transfection reagent was added. The mixture was incubated for 20 min and then added to the cells. The plate was placed onto a magnetic plate on a rotating platform for 20 min.\nCell-permeable X-protein-degradation domain fusion peptides were added at a concentration of 10 μM to the cells in MEM without 10% FCS and cells incubated for 45 h. […] An additional 10 μM of peptide was added after 3 h of incubation, and a further 10 μM of peptide was added after 21 h incubation. When the additional aliquots of peptide were added, the cells were washed in MEM without FCS, the peptides added, and the cells incubated for 3 h before changing the medium to MEM containing 10% FCS and PSG. The cells were lysed and analyzed by Western blot analysis for expression of the X-proteins.\nCells were washed with PBS, and detached from plates by incubation with trypsin diluted in PBS. Cells were washed with MEM containing FCS to inactivate trypsin, and pelleted by centrifugation at 175 g for 5 min. They were then resuspended in 1 ml of PBS, and a 10 μl sample was removed, stained with Trypan blue, and cell number counted with a haemocytometer. The cells were then pelleted at 4,000 g for 5 min and thrice washed in PBS. All traces of liquid were removed and the cells were ready for cell lysis. Complete Lysis Buffer was added to the cells at 20 μl per 1×10^6 cells. The cells were resuspended very well to aid lysis and then left on ice for 10 min. They were centrifuged at 15,000 g for 10 min, and the supernatant collected and saved. The nuclear precipitate was processed by adding 13 μl of lysis buffer, 2 μl of 2% SDS, 2 μl of Na deoxycholate, 2 μl of DNAse buffer and 1 μl of DNAse I. The sticky cell lysate was resuspended vigorously after each reagent was added then incubated at 37° for 10 min.\nThe two X-protein-ODD fusion peptides were tested for their ability to decrease the level of X-protein expression. HepG2 cells were transfected with 4 μg of either the X-protein plasmids pCDNA3.1-HBX and pCDNA3-HBX Myc, or 4 μg of the pCDNA3-GFP vector. The X-protein-ODD fusion peptides were repetitively added to the cells at 3 h, 24 h and 48 h post transfection. Control transfectants were not treated with peptide, but were otherwise cultured under the same conditions. Transfectants were subjected to Western blotting to determine whether the X-protein was expressed. […]"}, "[4]": {"tested_on": "WM-266-4 melanoma cells", "settings": "WM-266-4, 20 μM, 3 h", "procedure": "(§1) The melanoma cell lines WM-266-4 and C32 were seeded into 8-well chamber slides at 1×10^5 cells per well in full MEM media and incubated at 37° C. and 5% CO2 overnight. The next day the cells were washed thrice with serum-free MEM, resuspended in 500 μl of the same medium, and added to the wells. […] Annexin-V labelling solution was prepared by adding 20 μl of Annexin V labelling reagent and 10 μl of propidium iodide in 1 ml of incubation buffer. The cells were washed with incubation buffer, and 100 μl of Annexin-V labelling solution was added, followed by incubation for 15 min in the dark. The cells were washed with incubation buffer, fixed with 4% formaldehyde in PBS for 30 min, washed with PBS and slide chambers removed. A drop of Prolong Gold anti-fade reagent with DAPI was added to each sample, the slides dried overnight, and then examined by fluorescence microscopy."}, "[5]": {"tested_on": "C32 melanoma cells", "settings": "C32, 10 μM, 3 h", "procedure": "as §1"}, "[6]": {"tested_on": "HepG2 cells", "assay": "Assay for cell permeability of X-protein peptides (fluorescence and confocal microscopy)", "assay_type": "cell-based, human", "settings": "for uptake by HepG2 cells (cell permeability): FITC-labelled peptide 10 μM, 3 h, medium without FCS; for intracellular distribution (confocal slicing): FITC-labelled peptide, HepG2 cells", "procedure": "The cells were then incubated overnight at 37° and 5% CO2, and then washed thrice with media without FCS. The X-protein peptide in 250 μl of appropriate media without FCS was added to the cells at a final concentration of 10 μM, and the slides incubated for 3 h at 37° C. and 5% CO2. The cells were washed with PBS, fixed with 4% formaldahyde in PBS for 30 min, and washed thrice with PBS. […] The slides were dried overnight in the dark, and examined by microscopy by using a Nikon E600 fluorescent microscope. Photos were taken using Nikon ACT-1 software. For further examination, slides were then examined by confocal microscopy using a Leica TCS-SP2 confocal microscope."}, "[7]": {"target": "T1, X-protein N-terminal peptide 1-50 (Hepatitis B virus genotype C subtype adr, UniProt Q81163, DEL44-44/P38S/S41A/S42F/V5L)", "T1 construct": "The parent peptide containing aa 1-50 conjugated N-terminally to a biotin tag; purchased; host or cells: chemical synthesis", "assay": "Peptide binding assay: FITC-peptides on peptide 1-50-coated plates", "settings": "FITC-peptide at 10, 20, 40 μg/ml, 30 min", "procedure": "Qligomerization peptides were received in powdered form, and were weighed and diluted in a sterile 10% DMSO solution to make a 10 mg/ml stock solution. The wells of a Reactibind neutravidin-coated 96 well plate (Thermoscientific cat #15507) were thrice washed with 200 μl of plate washing buffer. Peptide 1-50, which contains a biotin tag, was diluted to 10 μg/ml in wash buffer and 100 μl of the solution was placed into each well being used. The plate was incubated at room temperature for 2 h, and the wells washed thrice with 200 μl of wash buffer. Truncated fluorescent variants of peptide 1-50 at 40 μg/ml, 20 μg/ml, and 10 μg/ml were added to the wells in triplicate, and the plates incubated at room temperature for 30 min. The wells were then washed thrice with 200 μl of wash buffer under low light conditions, and the plate read on a Biotek fluorescent plate reader at an excitation wavelength of 490 nm and an emission wavelength of 520 nm.\nA ligand-binding assay was performed using streptavidin-coated plates in order to define the minimum peptide motif needed for dimerization of the X-protein. In this scenario the X-protein monomer serves as its own ligand. […] A series of short peptides from the region encoding aa 1-50 were synthesized. The parent peptide containing aa 1-50 conjugated N-terminally to a biotin tag was added to the streptavidin coated plates. […] Non-biotinylated peptides encoding aa 1-20, 16-35, 21-40 and 34-53 were added at 10, 20, and 40 μg/ml to the wells coated with peptide aa 1-50. The smaller peptides were each conjugated to a FITC tag for detection using a fluorescent plate reader. […] Binding performed with lesser concentrations of the peptides was not significant. Even smaller peptides encompassing that region 16-35 were made to determine whether the aa 16-35 was the minimum peptide motif needed for X-protein dimerization. These peptides synthesized, namely aa 16-26, 16-24, and 16-22 were analyzed using the same peptide binding assay. […] Thus of the peptides examined, the minimal peptide motif needed for dimerization of the X-protein is the […] peptide 16-35."}, "[8]": {"tested_on": "TK-1 T cells adherent to MAdCAM-1", "assay": "Carriage of a foreign peptide into TK-1 cells", "assay_type": "cell-based", "settings": "50 μM, 30 min, streptavidin-FITC detection", "procedure": "Eight-well glass chamber slides were coated overnight at 4° C. with MAdCAM-1-Fc. They were blocked with FCS at RT for 2 h. TK-1 T cells were activated with 2 mM Mn2+/Ca2+ in HBSS buffer and added to MAdCAM-1 coated glass slides, followed by incubation for 15 min. Peptides […] (SEQ ID NO 15) and R9YDRREY (SEQ ID NO 14) were added at 50 μM followed by incubation for 30 min. The cells were fixed overnight in 4% PFA, permeabilised with PBS+0.1% Tween 20 for 15 min, blocked with 3% BSA in PBS for 1 h, and the presence of the peptides detected with FITC-Streptavidin (1:200 dilution in 3% BSA in PBS 1 h). Slides were mounted with Prolong gold with DAPI.\nThe X-protein cell-permeable peptide LCLRPVG (SEQ ID NO: 2) was fused to the hexapeptide YDRREY (SEQ ID NO 16) taken from the cytoplasmic domain of the human integrin β7 subunit. The peptides were separated by a glycine linker, and a biotin tag was added N-terminally. The fusion peptide was compared with the YDRREY (SEQ ID NO 16) peptide fused to an R9 (SEQ ID NO: 145) carrier peptide for its ability to enter TK-1 T cells adherent to MAdCAM-1."}, "[9]": {"settings": "listed as biotin-RRRRRRRRHKLVRSPAPCKFFTSAGGLNVTAPTPQQLQAFKNEVGVLRK"}}, "note": "Entries after “also recorded” stand apart in the source; their conditions may differ. Where two headings read alike, the source gives them in different places. Ends that are not written are not given here. * marks the point of attachment. FITC = O=C1OC2(c3ccc(O)cc3Oc3cc(O)ccc32)c2ccc(NC(=S)*)cc21; Biotin = O=C1N[C@H]2[C@H](CS[C@H]2CCCCC(=O)*)N1; Acp = not defined here", "data": [{"compound": "CCCS(=O)(=O)Nc1ccc(F)c(C(=O)c2c[nH]c3ncc(-c4ccc(Cl)cc4)cc23)c1F", "note": "[PLX4032]", "values": [{"measurement": "patients with regression of melanomas", "setting": "[1]", "result": "80 % of patients"}]}, {"compound": "Biotin-LCLRPVGGGRRRQQQQQQRRR", "values": [{"measurement": "cell apoptosis", "setting": "[2]", "result": "no detectable effect"}]}, {"compound": "Biotin-RRRRRRRRHKLVRSPAPCKFFTSAGGLCLRPVGAESRGRPVSGPFG (cysteine pairing not given here)", "values": [{"measurement": "degradation of the X-protein (Western blot, nuclear fraction)", "setting": "[3]", "result": "complete degradation of the X-protein"}]}, {"compound": "Biotin-RRRRRRRRHKLVRSPAPCKFFTSAGGLNVTAPTPQQLQAFKNEVGVLRK [B-Raf targeting peptide]", "values": [{"measurement": "tumour cell death / apoptosis", "setting": "[4]", "result": "killed the melanoma cells"}, {"measurement": "tumour cell death / apoptosis", "setting": "[4]; [9]", "result": "led to tumour cell death"}, {"measurement": "tumour cell death / apoptosis", "setting": "[5]", "result": "killed the melanoma cells"}, {"measurement": "tumour cell death / apoptosis", "setting": "[5]; [9]", "result": "led to tumour cell death"}]}, {"compound": "Biotin-RRRRRRRRLCLRPVGAESRGRPVSGPFGGCRHKLVRSPAPCKFFTSA (cysteine pairing not given here)", "values": [{"measurement": "degradation of the X-protein (Western blot, nuclear fraction)", "setting": "[3]", "result": "near complete degradation of the X-protein, with slight preference for the full length protein"}]}, {"compound": "FITC-Acp-FGPLSSPAFSVPADHGAHLS ({FITC-Acp}-FGPLSSPAFSVPADHGAHLS; reading uncertain; also: printed as FITC-Acp-FGPLSSPAFSVPADHGAHLS) [Peptide 34-53]", "values": [{"measurement": "uptake by HepG2 cells (cell permeability)", "setting": "[6]", "result": "not cell-permeable"}]}, {"compound": "FITC-Acp-MAARLCCQLDPARDVLCLRP [Peptide 1-20]", "values": [{"measurement": "uptake by HepG2 cells (cell permeability)", "setting": "[6]; listed as aa 1-20", "result": "cell-permeable; also recorded: readily taken up by the cells"}, {"measurement": "intracellular distribution (confocal slicing)", "setting": "[6]", "result": "taken up into the cell cytoplasm, as well as into the nucleus"}]}, {"compound": "FITC-Acp-RRRRRRRRLCLRPVGAESRGRPVSGPFGGMLAPYIPM", "values": [{"measurement": "degradation of the X-protein (Western blot, nuclear fraction)", "setting": "[3]", "result": "near complete degradation of the X-protein"}]}, {"compound": "FITC-Acp-RRRRRRRRMLAPYIPMGGLCLRPVGAESRGRPVSGPFG", "values": [{"measurement": "degradation of the X-protein (Western blot, nuclear fraction)", "setting": "[3]", "result": "complete degradation of the X-protein"}]}, {"compound": "FITC-Acp-VGAESRGRPVSGPFGPLSSP ({FITC-Acp}-VGAESRGRPVSGPFGPLSSP; reading uncertain; also: printed as FITC-Acp-VGAESRGRPVSGPFGPLSSP) [Peptide 21-40]", "values": [{"measurement": "binding to peptide 1-50 (fluorescence)", "setting": "[7]", "result": "failed to appreciably bind peptide 1-50"}, {"measurement": "uptake by HepG2 cells (cell permeability)", "setting": "[6]", "result": "not cell-permeable"}]}, {"compound": "FITC-LCLRP ({FITC}-LCLRP) [Peptide 16-20]", "values": [{"measurement": "uptake by HepG2 cells (cell permeability)", "setting": "[6]; listed as aa 16-20", "result": "cell-permeable; also recorded: taken up into the cells"}]}, {"compound": "FITC-LCLRPVGAE ({FITC}-LCLRPVGAE) [Peptide 16-24]", "values": [{"measurement": "binding to peptide 1-50 (fluorescence)", "setting": "[7]", "result": "could not match the strong binding shown by the parental peptide 16-35"}, {"measurement": "uptake by HepG2 cells (cell permeability)", "setting": "[6]; listed as aa 16-24", "result": "cell-permeable, being taken up by cells at a level equivalent to that of the parental peptide aa 16-35"}]}, {"compound": "FITC-LCLRPVGAESR ({FITC}-LCLRPVGAESR) [Peptide 16-26]", "values": [{"measurement": "binding to peptide 1-50 (fluorescence)", "setting": "[7]", "result": "could not match the strong binding shown by the parental peptide 16-35"}, {"measurement": "uptake by HepG2 cells (cell permeability)", "setting": "[6]; listed as aa 16-26", "result": "cell-permeable, being taken up by cells at a level equivalent to that of the parental peptide aa 16-35"}]}, {"compound": "LCLRPVGAESRGRPV [Peptide 16-30]", "values": [{"measurement": "binding to peptide 1-50 (fluorescence)", "setting": "[7]", "result": "binds to the X-protein N-terminal peptide 1-50; also recorded: bound peptide 1-50 even more strongly than peptide 16-35"}]}, {"compound": "LCLRPVGGYDRREY (Biotin-LCLRPVGGYDRREY) [biotinylated LCLRPVG fused via glycine linker to β7 integrin hexapeptide YDRREY]", "values": [{"measurement": "uptake of biotinylated fusion peptide into TK-1 cells", "setting": "[8]", "result": "uniformly taken up in similar amounts by all cells"}]}, {"compound": "MAARLCCQ (cysteine pairing not given here; also: fluorescein label, position not given here) [Peptide 1-8]", "values": [{"measurement": "uptake by HepG2 cells (cell permeability)", "setting": "[6]", "result": "cell-permeable"}]}, {"compound": "MAARLCCQLDPARDV [Peptide 1-15]", "values": [{"measurement": "uptake by HepG2 cells (cell permeability)", "setting": "[6]; listed as aa 1-15", "result": "cell-permeable; also recorded: taken up into the cells"}, {"measurement": "intracellular distribution (confocal slicing)", "setting": "[6]", "result": "taken up into the cytoplasm and nucleus"}]}, {"compound": "R9YDRREY (RRRRRRRRRYDRREY; not fully specified (N-terminus); also: biotin, position not given here) [Peptide R9YDRREY, biotinylated YDRREY peptide fused to an R9 carrier peptide, reference compound]", "values": [{"measurement": "uptake of biotinylated fusion peptide into TK-1 cells", "setting": "[8]", "result": "entered all the cells"}]}]}
